Where a name gives a salt, the structure may show the parent alone.
SMILES	melting point [°C]
O=C(Nc1cccc2c1C(=O)c1c-2n[nH]c1-c1ccc(N2CCNCC2)cc1)NN1CCC[C@@H]1CO (as salt: TFA) [Example CCXXXIII, 3-(4-piperazinophenyl)-5-((2(R)-(hydroxymethyl)pyrrolidino)carbamoylamino)indeno[1,2-c]pyrazol-4-one]	193
O=C(Nc1cccc2c1C(=O)c1c-2n[nH]c1-c1ccc(N2CCNCC2)cc1)NN1CCC[C@H]1CO (as salt: TFA) [Example CCXXXIV, 3-(4-piperazinophenyl)-5-((2(S)-(hydroxymethyl)pyrrolidino)carbamoylamino)indeno[1,2-c]pyrazol-4-one]	190
O=C(Nc1cccc2c1C(=O)c1c-2n[nH]c1-c1ccc(N2CCNCC2)cc1)NN1CCC[C@@H]1COCc1ccccc1 (as salt: TFA) [Example CCXXXV, 3-(4-piperazinophenyl)-5-((2(R)-(benzyloxymethyl)pyrrolidino)carbamoylamino)indeno[1,2-c]pyrazol-4-one]	207
CC1CN(c2ccc(-c3[nH]nc4c3C(=O)c3c(NC(=O)NN5CCOCC5)cccc3-4)cc2)CCN1 (centres unmarked) (as salt: TFA) [Example CCXXXVII, 3-(4-(3-methylpiperazino)phenyl)-5-(morpholinocarbamoylamino)indeno[1,2-c]pyrazol-4-one]	230
C[C@@H]1CN(c2ccc(-c3[nH]nc4c3C(=O)c3c(NC(=O)NN5CCOCC5)cccc3-4)cc2)C[C@H](C)N1 (as salt: TFA) [Example CCXXXVIII, 3-(4-(cis-3,5-dimethylpiperazino)phenyl)-5-(morpholinocarbamoylamino)indeno[1,2-c]pyrazol-4-one]	237
CN1CCN(C(=O)c2ccc(-c3[nH]nc4c3C(=O)c3c(NC(=O)NN5CCOCC5)cccc3-4)s2)CC1 (as salt: TFA) [Example CL, 3-(5-(4-methylpiperazinocarbonyl)-2-thienyl)-5-(morpholinocarbamoylamino)indeno[1,2-c]pyrazol-4-one]	186
CCN1CCN(C(=O)c2ccc(-c3[nH]nc4c3C(=O)c3c(NC(=O)NN5CCOCC5)cccc3-4)s2)CC1 (as salt: TFA) [Example CLI, 3-(5-(4-ethylpiperazinocarbonyl)-2-thienyl)-5-(morpholinocarbamoylamino)indeno[1,2-c]pyrazol-4-one]	186
O=C(Nc1cccc2c1C(=O)c1c-2n[nH]c1-c1ccc(C(=O)N2CCN(CCO)CC2)s1)NN1CCOCC1 (as salt: TFA) [Example CLII, 3-(5-(4-(2-hydroxyethyl)piperazinocarbonyl)-2-thienyl)-5-(morpholinocarbamoylamino)indeno[1,2-c]pyrazol-4-one]	186
O=C(Nc1cccc2c1C(=O)c1c-2n[nH]c1-c1ccc(C(=O)N2CCN(CC3CC3)CC2)s1)NN1CCOCC1 (as salt: TFA) [Example CLIII, 3-(5-(4-(cyclopropylmethyl)piperazinocarbonyl)-2-thienyl)-5-(morpholinocarbamoylamino)indeno[1,2-c]pyrazol-4-one]	211
CC(C)(C)OC(=O)N1CCN(C(=O)c2ccc(-c3[nH]nc4c3C(=O)c3c(NC(=O)NN5CCOCC5)cccc3-4)s2)CC1 (as salt: TFA) [Example CLIV, 3-(5-(4-(t-butoxycarbonyl)piperazinocarbonyl)-2-thienyl)-5-(morpholinocarbamoylamino)indeno[1,2-c]pyrazol-4-one]	225
O=C(Nc1cccc2c1C(=O)c1c-2n[nH]c1-c1ccc(C(=O)N2CCC(N3CCCC3)CC2)s1)NN1CCOCC1 (as salt: TFA) [Example CLIX, 3-(5-(4-pyrrolidinopiperidinocarbonyl)-2-thienyl)-5-(morpholinocarbamoylamino)indeno[1,2-c]pyrazol-4-one]	228
O=C(Nc1cccc2c1C(=O)c1c-2n[nH]c1-c1ccc(C(=O)N2CCN(c3ccccn3)CC2)s1)NN1CCOCC1 (as salt: TFA) [Example CLV, 3-(5-(4-(2-pyridyl)piperazinocarbonyl)-2-thienyl)-5-(morpholinocarbamoylamino)indeno[1,2-c]pyrazol-4-one]	202
O=C(Nc1cccc2c1C(=O)c1c-2n[nH]c1-c1ccc(C(=O)[C@]23CN[C@H](CN2)C3)s1)NN1CCOCC1 (as salt: TFA) [Example CLVI, 3-(5-(((1S,4S)-(+)-2,5-diazabicyclo[2.2.1]heptyl)carbonyl)-2-thienyl)-5-(morpholinocarbamoylamino)indeno [1,2-c]pyrazol-4-one]	> 300
CN1C[C@@H]2C[C@@]1(C(=O)c1ccc(-c3[nH]nc4c3C(=O)c3c(NC(=O)NN5CCOCC5)cccc3-4)s1)CN2 (as salt: TFA) [Example CLVII, 3-(5-(((1S,4S)-(+)-2-methyl-2,5-diazabicyclo[2.2.1]heptyl)carbonyl)-2-thienyl)-5-(morpholinocarbamoylamino)indeno[1,2-c]pyrazol-4-one]	244
CN(C)C1CCN(C(=O)c2ccc(-c3[nH]nc4c3C(=O)c3c(NC(=O)NN5CCOCC5)cccc3-4)s2)CC1 (as salt: TFA) [Example CLVIII, 3-(5-(4-(N,N-dimethylamino)piperidinocarbonyl)-2-thienyl)-5-(morpholinocarbamoylamino)indeno[1,2-c]pyrazol-4-one]	185
O=C(Nc1cccc2c1C(=O)c1c-2n[nH]c1-c1ccc(C(=O)NC2CCCCC2)s1)NN1CCOCC1 (as salt: TFA) [Example CLXI, 3-(5-cyclohexylaminocarbonyl-2-thienyl)-5-(morpholinocarbamoylamino)indeno[1,2-c]pyrazol-4-one]	264
O=C(Nc1cccc2c1C(=O)c1c-2n[nH]c1-c1ccc(C(=O)NC2CCNCC2)s1)NN1CCOCC1 (as salt: TFA) [Example CLXII, 3-(5-(4-piperidylaminocarbonyl)-2-thienyl)-5-(morpholinocarbamoylamino)indeno[1,2-c]pyrazol-4-one]	224
CN(C)C1CCCN(C(=O)c2ccc(-c3[nH]nc4c3C(=O)c3c(NC(=O)NN5CCOCC5)cccc3-4)s2)C1 (centres unmarked) (as salt: TFA) [Example CLXV, 3-(5-(3-(N,N-dimethylamino)piperidinocarbonyl)-2-thienyl)-5-(morpholinocarbamoylamino)indeno[1,2-c]pyrazol-4-one]	> 300
O=C(Nc1cccc2c1C(=O)c1c-2n[nH]c1-c1ccc(C(=O)NC2CCCNC2)s1)NN1CCOCC1 (centres unmarked) (as salt: TFA) [Example CLXVIII, 3-(5-((3-piperidyl)aminocarbonyl)-2-thienyl)-5-(morpholinocarbamoylamino)indeno[1,2-c]pyrazol-4-one]	> 300
NC1CCCC(NC(=O)c2ccc(-c3[nH]nc4c3C(=O)c3c(NC(=O)NN5CCOCC5)cccc3-4)s2)C1 (centres unmarked) (as salt: TFA) [Example CLXX, 3-(5-((3-aminocyclohexyl)aminocarbonyl)-2-thienyl)-5-(morpholinocarbamoylamino)indeno[1,2-c]pyrazol-4-one]	> 300
CC(C)(C)OC(=O)NC1CCCC(NC(=O)c2ccc(-c3[nH]nc4c3C(=O)c3c(NC(=O)NN5CCOCC5)cccc3-4)s2)C1 (centres unmarked) (as salt: TFA) [Example CLXXI, 3-(5-((3-(t-butoxycarbonylamino)cyclohexyl)aminocarbonyl)-2-thienyl)-5-(morpholinocarbamoylamino)indeno[1,2-c]pyrazol-4-one]	> 300
CN(C)CC1CCCCN1C(=O)c1ccc(-c2[nH]nc3c2C(=O)c2c(NC(=O)NN4CCOCC4)cccc2-3)s1 (centres unmarked) (as salt: TFA) [Example CLXXII, 3-(5-(2-(N,N-dimethylaminomethyl)piperidinocarbonyl)-2-thienyl)-5-(morpholinocarbamoylamino)indeno[1,2-c]pyrazol-4-one]	> 300
CCN(CC)CC1CCCCN1C(=O)c1ccc(-c2[nH]nc3c2C(=O)c2c(NC(=O)NN4CCOCC4)cccc2-3)s1 (centres unmarked) (as salt: TFA) [Example CLXXIII, 3-(5-(2-(N,N-diethylaminomethyl)piperidinocarbonyl)-2-thienyl)-5-(morpholinocarbamoylamino)indeno[1,2-c]pyrazol-4-one]	210
O=C(Nc1cccc2c1C(=O)c1c-2n[nH]c1-c1ccc(C(=O)N2CCCC2)s1)NN1CCOCC1 (as salt: TFA) [Example CLXXIV, 3-(5-pyrrolidinocarbonyl-2-thienyl)-5-(morpholinocarbamoylamino)indeno[1,2-c]pyrazol-4-one]	> 300
CN(C(=O)OC(C)(C)C)[C@H]1CCN(C(=O)c2ccc(-c3[nH]nc4c3C(=O)c3c(NC(=O)NN5CCOCC5)cccc3-4)s2)C1 (as salt: TFA) [Example CLXXIX, 3-(5-(3(S)-(N-methyl-t-butoxycarbonylamino)pyrrolidinocarbonyl)-2-thienyl)-5-(morpholinocarbamoylamino)indeno[1,2-c]pyrazol-4-one]	> 300
NC1CCN(C(=O)c2ccc(-c3[nH]nc4c3C(=O)c3c(NC(=O)NN5CCOCC5)cccc3-4)s2)C1 (centres unmarked) (as salt: TFA) [Example CLXXV, 3-(5-(3-aminopyrrolidinocarbonyl)-2-thienyl)-5-(morpholinocarbamoylamino)indeno[1,2-c]pyrazol-4-one]	201
CC(=O)N[C@H]1CCN(C(=O)c2ccc(-c3[nH]nc4c3C(=O)c3c(NC(=O)NN5CCOCC5)cccc3-4)s2)C1 (as salt: TFA) [Example CLXXVII, 3-(5-(3(S)-acetamidopyrrolidinocarbonyl)-2-thienyl)-5-(morpholinocarbamoylamino)indeno[1,2-c]pyrazol-4-one]	264
CC(=O)N(C)[C@H]1CCN(C(=O)c2ccc(-c3[nH]nc4c3C(=O)c3c(NC(=O)NN5CCOCC5)cccc3-4)s2)C1 (as salt: TFA) [Example CLXXVIII, 3-(5-(3(S)-(N-methylacetamido)pyrrolidinocarbonyl)-2-thienyl)-5-(morpholinocarbamoylamino)indeno[1,2-c]pyrazol-4-one]	> 300
CN(C)C1CCN(C(=O)c2ccc(-c3[nH]nc4c3C(=O)c3c(NC(=O)NN5CCOCC5)cccc3-4)s2)C1 (centres unmarked) (as salt: TFA) [Example CLXXX, 3-(5-(3-(N,N-dimethylamino)pyrrolidinocarbonyl)-2-thienyl)-5-(morpholinocarbamoylamino)indeno[1,2-c]pyrazol-4-one]	216

From patent US6407103B2, “Indeno [1,2-c] pyrazol-4-ones and their uses” (Bristol-Myers Squibb Pharma Company, priority 1998, dated 2002)
